Assay results as given in ChEMBL document CHEMBL1201862, “PubChem BioAssay data set” (2004).
Calls of active or inactive are those of the source.

Tests used:
Tumor necrosis factor = Tumor necrosis factor (Homo sapiens, UniProt P01375); experiment: analog potency on TNFa NF-kB signaling – cell-based, revised, SAR follow-up (AID 2337); type: functional
[1] = molecular target: Nucleotide-binding oligomerization domain-containing protein 1 (Homo sapiens, UniProt Q9Y239); experiment: blockers of NOD1 pathway activity – revised, SAR follow-up (AID 2333); type: functional
Nucleotide-binding oligomerization domain-containing protein 1, sequence (Q9Y239 whole entry, the tested form may be a part): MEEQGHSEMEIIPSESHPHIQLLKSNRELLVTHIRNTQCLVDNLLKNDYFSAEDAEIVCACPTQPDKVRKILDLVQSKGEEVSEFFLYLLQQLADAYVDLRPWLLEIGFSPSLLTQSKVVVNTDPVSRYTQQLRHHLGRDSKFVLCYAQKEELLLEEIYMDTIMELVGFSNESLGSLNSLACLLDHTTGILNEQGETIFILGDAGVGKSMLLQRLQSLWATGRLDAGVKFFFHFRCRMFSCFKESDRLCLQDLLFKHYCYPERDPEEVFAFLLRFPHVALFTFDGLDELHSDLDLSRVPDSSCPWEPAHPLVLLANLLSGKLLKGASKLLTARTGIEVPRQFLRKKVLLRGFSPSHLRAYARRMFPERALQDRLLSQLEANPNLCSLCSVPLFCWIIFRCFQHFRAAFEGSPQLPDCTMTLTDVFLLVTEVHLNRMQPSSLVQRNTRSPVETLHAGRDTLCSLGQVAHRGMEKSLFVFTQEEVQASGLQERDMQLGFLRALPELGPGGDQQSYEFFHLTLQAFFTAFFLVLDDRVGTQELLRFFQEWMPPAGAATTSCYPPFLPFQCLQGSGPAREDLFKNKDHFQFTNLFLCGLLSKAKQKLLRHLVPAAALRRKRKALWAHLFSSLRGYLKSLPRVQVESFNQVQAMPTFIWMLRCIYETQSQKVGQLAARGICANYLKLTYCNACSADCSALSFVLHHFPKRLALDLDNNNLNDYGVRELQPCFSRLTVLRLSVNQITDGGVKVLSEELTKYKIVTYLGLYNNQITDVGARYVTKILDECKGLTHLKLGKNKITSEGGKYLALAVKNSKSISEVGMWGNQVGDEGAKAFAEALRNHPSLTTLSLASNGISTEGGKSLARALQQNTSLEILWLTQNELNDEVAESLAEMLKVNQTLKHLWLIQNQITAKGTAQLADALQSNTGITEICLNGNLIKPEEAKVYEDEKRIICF

HEK293 = experiment: cells; conditions: Homo sapiens
[2] = HEK-293T cell viability reduction – luminescence, B-cell screen hits, cytotoxicity control for BCR NF-kB inhibitor project, dose response (AID 489021); type: functional, cell-based;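 also: HEK-293T cells carrying an NF-kB luciferase reporter; cells exposed to compound for about 14 hours before viability readout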
Cytochrome P450 2D6 = Cytochrome P450 2D6 (Homo sapiens, UniProt P10635);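 also: CYP2D6 member of a cytochrome P450 panel assay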
Cytochrome P450 2D6, sequence (P10635 whole entry): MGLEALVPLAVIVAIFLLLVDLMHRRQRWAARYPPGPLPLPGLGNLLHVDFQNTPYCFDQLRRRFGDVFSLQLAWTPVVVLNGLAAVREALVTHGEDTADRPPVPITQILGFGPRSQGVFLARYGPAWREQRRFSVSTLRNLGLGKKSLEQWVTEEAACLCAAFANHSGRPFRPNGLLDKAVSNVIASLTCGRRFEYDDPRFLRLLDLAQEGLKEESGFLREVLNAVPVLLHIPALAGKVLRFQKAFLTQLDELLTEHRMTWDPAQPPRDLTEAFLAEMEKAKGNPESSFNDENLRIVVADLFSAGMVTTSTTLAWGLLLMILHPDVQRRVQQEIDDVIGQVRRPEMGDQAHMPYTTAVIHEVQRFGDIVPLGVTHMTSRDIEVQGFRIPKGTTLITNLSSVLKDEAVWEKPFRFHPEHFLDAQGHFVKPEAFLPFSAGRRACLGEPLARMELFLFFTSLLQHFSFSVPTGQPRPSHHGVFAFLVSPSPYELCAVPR

[3] = molecular target: Glucose-6-phosphate 1-dehydrogenase (Homo sapiens, UniProt P11413); experiment: inhibition of Homo sapiens G6PD, dose series – biochemical, fluorescence, selectivity assay for P. falciparum G6PD inhibitor project, dose response (AID 504792); type: functional
Glucose-6-phosphate 1-dehydrogenase, sequence (P11413 whole entry): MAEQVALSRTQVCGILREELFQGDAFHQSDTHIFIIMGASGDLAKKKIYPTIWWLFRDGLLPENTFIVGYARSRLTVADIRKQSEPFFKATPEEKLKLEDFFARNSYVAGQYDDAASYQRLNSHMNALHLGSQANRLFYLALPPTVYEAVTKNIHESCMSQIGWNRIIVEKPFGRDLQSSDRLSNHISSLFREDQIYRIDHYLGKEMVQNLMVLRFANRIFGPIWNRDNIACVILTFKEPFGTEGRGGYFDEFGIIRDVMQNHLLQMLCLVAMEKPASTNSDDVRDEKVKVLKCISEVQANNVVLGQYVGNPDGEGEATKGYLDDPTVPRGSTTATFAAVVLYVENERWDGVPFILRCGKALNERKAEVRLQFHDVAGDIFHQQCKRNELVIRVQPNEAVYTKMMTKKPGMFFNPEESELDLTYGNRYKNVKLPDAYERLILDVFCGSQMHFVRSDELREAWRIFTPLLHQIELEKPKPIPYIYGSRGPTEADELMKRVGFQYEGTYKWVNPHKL

[4] = molecular target: Cystic fibrosis transmembrane conductance regulator/Golgi-associated PDZ and coiled-coil motif-containing protein (Homo sapiens, UniProt P13569+Q9HD26); experiment: potency against CAL PDZ-peptide interaction – biochemical, fluorescence polarization, Cerulean-tagged CAL PDZ, cherry-picks, dose response (AID 504773)
Cystic fibrosis transmembrane conductance regulator/Golgi-associated PDZ and coiled-coil motif-containing protein, sequence (P13569 whole entry, other chains not shown): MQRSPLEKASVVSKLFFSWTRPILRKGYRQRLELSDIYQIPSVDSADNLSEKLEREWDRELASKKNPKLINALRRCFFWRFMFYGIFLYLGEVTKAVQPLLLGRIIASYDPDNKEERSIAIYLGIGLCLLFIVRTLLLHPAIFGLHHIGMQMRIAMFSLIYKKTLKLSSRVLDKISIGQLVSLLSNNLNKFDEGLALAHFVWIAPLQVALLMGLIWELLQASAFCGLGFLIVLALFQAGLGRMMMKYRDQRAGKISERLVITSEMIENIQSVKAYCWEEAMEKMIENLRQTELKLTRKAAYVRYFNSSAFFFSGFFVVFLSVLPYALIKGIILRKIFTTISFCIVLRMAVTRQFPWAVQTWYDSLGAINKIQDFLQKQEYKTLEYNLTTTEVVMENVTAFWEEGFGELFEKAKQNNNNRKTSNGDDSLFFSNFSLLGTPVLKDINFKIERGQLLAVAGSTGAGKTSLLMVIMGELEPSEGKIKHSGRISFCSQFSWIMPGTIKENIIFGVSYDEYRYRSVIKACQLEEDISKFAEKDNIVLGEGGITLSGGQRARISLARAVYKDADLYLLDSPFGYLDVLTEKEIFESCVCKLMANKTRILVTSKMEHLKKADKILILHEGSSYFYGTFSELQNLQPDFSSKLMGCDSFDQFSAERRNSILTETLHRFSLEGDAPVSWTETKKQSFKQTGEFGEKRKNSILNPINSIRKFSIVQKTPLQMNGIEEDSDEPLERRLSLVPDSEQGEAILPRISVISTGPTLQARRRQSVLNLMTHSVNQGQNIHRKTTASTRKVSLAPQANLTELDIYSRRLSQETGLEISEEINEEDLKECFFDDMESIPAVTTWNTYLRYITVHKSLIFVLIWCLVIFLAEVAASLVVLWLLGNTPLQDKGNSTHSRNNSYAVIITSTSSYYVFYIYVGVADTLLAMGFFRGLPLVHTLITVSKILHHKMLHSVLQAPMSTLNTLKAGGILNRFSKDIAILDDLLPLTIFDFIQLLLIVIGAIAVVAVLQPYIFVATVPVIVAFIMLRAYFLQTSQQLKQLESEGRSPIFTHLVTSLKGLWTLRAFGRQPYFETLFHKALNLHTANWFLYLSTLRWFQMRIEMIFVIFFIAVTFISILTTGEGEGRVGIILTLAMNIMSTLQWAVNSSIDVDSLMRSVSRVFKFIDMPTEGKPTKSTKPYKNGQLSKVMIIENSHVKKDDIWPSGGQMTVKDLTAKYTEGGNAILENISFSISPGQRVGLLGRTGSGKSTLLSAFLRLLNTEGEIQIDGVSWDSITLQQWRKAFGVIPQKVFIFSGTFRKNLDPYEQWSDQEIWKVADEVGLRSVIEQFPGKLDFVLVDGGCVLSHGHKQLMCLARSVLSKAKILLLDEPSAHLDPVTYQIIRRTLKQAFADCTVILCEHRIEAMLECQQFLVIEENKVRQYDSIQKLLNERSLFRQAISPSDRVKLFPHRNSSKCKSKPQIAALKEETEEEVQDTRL

Nonstructural protein 1 = Nonstructural protein 1 (Influenza A virus, UniProt Q194T2); type: functional, Influenza A virus (A/California/07/2009(H1N1))
Nonstructural protein 1, sequence (Q194T2 whole entry): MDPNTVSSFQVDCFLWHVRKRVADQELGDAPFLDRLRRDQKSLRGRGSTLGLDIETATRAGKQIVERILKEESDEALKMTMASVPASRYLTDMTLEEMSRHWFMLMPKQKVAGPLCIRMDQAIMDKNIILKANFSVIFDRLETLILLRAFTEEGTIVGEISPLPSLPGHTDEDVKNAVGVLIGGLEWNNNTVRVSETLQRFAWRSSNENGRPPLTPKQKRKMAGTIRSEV

[5] = molecular target: Heat shock protein HSP 90-alpha (Homo sapiens, UniProt P07900); type: functional, organism-based
[6] = HGIII-sPLA2 enzyme inhibition potency – biochemical, QFRET, IC50, dose response (AID 743457);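 also: green fluorescence rise as the enzyme cleaves BODIPY PC-A2 in liposomes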
Mu-type opioid receptor = Mu-type opioid receptor (Homo sapiens, UniProt P35372); experiment: SAR Analysis of Antagonists of the MOR Receptor using an Image-Based Assay - Set 3. [Related pubchem assays (depositor defined):AID1777, AID1785, AID1786, AID1966, AID2133, AID2136, AID2284, AID2285, AID2420]; type: functional
[7] = molecular target: T1, Kappa-type opioid receptor (Homo sapiens, UniProt P41145); experiment: SAR analysis of small molecule antagonists of the kappa opioid receptor via a luminescent beta-arrestin assay - Set 4. [Related pubchem assays (depositor defined):AID1777, AID1778, AID1785, AID1786, AID1966, AID2133, AID2136, AID2285]; type: functional
T1 sequence (P41145 whole entry): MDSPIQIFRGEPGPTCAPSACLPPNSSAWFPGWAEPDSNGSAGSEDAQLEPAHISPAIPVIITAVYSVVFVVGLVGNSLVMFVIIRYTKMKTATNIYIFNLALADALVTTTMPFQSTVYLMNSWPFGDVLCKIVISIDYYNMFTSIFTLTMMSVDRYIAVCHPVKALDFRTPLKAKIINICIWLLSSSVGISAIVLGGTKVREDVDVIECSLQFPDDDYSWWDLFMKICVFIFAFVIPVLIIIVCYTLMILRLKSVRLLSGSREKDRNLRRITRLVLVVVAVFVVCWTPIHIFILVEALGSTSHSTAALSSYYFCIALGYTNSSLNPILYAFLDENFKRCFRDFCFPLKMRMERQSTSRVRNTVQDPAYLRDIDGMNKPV

[8] = molecular target: Delta-type opioid receptor (Homo sapiens, UniProt P41143); experiment: SAR Analysis of Antagonists of the DOR Receptor using an Image-Based Assay - Set 3. [Related pubchem assays (depositor defined):AID1777, AID1785]; type: functional;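 also: U2OS cells expressing DOR1 and beta-arrestin GFP stimulated with 100 nM SNC80; imaging of GFP-tagged beta-arrestin moving into spots after receptor activation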
[9] = molecular target: T1, Kappa-type opioid receptor; experiment: SAR analysis of Antagonists of the Kappa Opioid Receptor (KOR) using an Image-Based Assay - Set 4. [Related pubchem assays (depositor defined):AID1777, AID1785]; type: functional
[10] = molecular target: Melanin-concentrating hormone receptor 1 (Homo sapiens, UniProt Q99705); experiment: Late-stage fluorescence-based counterscreen for antagonists of the G-protein coupled receptor 7 (GPR7): cell-based dose response assay to identify antagonists of the melanin-concentrating hormone receptor 1 (MCHR1). [Related pubchem assays (depositor defined):AID1861, AID1880, AID1952, AID2148, AID2251, AID2257, AID485339]; type: functional;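 also: stimulated with 30 nM MCH peptide agonist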
Melanin-concentrating hormone receptor 1, sequence (Q99705 whole entry): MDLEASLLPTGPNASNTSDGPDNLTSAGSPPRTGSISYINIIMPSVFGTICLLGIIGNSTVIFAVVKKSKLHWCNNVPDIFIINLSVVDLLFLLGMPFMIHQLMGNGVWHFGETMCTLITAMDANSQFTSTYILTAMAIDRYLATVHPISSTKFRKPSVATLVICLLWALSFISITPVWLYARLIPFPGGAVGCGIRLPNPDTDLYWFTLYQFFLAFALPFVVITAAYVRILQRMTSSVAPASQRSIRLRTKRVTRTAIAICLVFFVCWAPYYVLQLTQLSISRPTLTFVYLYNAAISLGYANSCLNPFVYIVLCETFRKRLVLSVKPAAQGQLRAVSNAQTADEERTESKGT

X-box-binding protein 1 = X-box-binding protein 1 (Homo sapiens, UniProt P17861); type: functional, Cricetulus griseus;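 also: confirmatory dose-response counter-screen serving a CHOP assay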
X-box-binding protein 1, sequence (P17861 whole entry): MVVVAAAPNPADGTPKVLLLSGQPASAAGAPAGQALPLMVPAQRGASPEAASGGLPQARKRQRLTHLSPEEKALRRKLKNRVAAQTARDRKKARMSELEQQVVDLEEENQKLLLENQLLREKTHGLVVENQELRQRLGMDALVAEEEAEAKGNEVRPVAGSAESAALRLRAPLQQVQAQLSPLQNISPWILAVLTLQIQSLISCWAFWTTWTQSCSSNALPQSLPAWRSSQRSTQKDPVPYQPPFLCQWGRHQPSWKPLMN

[11] = Luminescence Cell-Based Dose Retest to Confirm Inhibitors of Cancer Stem Cells. [Related pubchem assays (depositor defined):AID2717, AID2721]; type: functional; conditions: Homo sapiens
[12] = protection from phage-mediated lysis, alamar blue read-out – E. coli UTI89, K1F phage, bacterial capsule biogenesis inhibitors (AID 488966); type: functional

Tumor necrosis factor, sequence (P01375 whole entry, the tested form may be a part): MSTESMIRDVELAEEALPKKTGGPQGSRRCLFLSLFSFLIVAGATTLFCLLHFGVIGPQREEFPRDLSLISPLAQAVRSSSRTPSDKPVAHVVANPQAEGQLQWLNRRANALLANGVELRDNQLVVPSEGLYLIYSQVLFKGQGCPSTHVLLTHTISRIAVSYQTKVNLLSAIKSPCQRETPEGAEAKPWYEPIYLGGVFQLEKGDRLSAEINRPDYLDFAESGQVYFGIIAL

## CC1CCc2c(sc(NC(=O)c3ccc(Cl)cc3)c2C(=O)O)C1 (stereo not drawn)
Tumor necrosis factor
  IC50: 4.41 µM (active)
[1]
  IC50: 1.37 µM (active)
HEK293
  IC50: 5.2 µM (active)

## CCOc1ccc(-n2c(SCC(=O)Nc3ccc4c(c3)OCCO4)nc3c(c2=O)SCC3)cc1
[2]
  IC50: > 80 µM (inactive)
Cytochrome P450 2D6
  AC50: 8.91 µM (inconclusive)

## COc1ccc2c(c1)c(=Cc1ccc(N(C)C)cc1)c1cc(-c3ccccc3)[n+](C)n12
[3]
  IC50: 74.7 µM (inactive)
[4]
  AC50: > 56 µM (inactive)
Nonstructural protein 1
  IC50: 4.56 µM (active)
[5]
  AC50: 3.93 µM (active)
[6]
  IC50: > 40.6 µM (inactive)

## CCC(C)(C)c1ccc(S(=O)(=O)NCc2ccc(C(=O)NCCN(Cc3ccccc3)C(C)C)cc2)cc1
Mu-type opioid receptor
  IC50: > 32 µM (inactive)
[7]
  IC50: 1.19 µM (active)
[8]
  IC50: > 32 µM (inactive)
[9]
  IC50: 0.57 µM (active)

## Cc1ccc(-n2ncc(Cl)c(OC3CCN(C(=O)OC(C)(C)C)CC3)c2=O)cc1
[10]
  IC50: 5 µM (active)

## C/N=C1\SC(CC(=O)Nc2ccc(F)cc2F)C(=O)N1/N=C/c1ccc(OC(F)F)c(OC)c1 (stereo not drawn)
X-box-binding protein 1
  Absolute IC50 (XBP1): 10 µM

## O=C(N/N=C/c1cccc(O)c1)c1ccc(COc2ccccc2Br)cc1
[11]
  AC50: 4.82 µM (active)
[12]
  IC50: > 150 µM (active)
